According to the CheMixHub viscosity set:
Where “and” joins values, the source holds several entries; their conditions need not be identical. Equal values may be shown once. ± gives the uncertainty stated by the source.

Assay: xn = mol fraction of the nth substance listed

CCCCOCCO + O
Conditions	viscosity
293.15 K, 101 kPa, x1 = 0.00631	1.166 ± 0.015 mPa·s
293.15 K, 101 kPa, x1 = 0.0131	1.391 ± 0.015 mPa·s
293.15 K, 101 kPa, x1 = 0.01666	1.507 ± 0.016 mPa·s
293.15 K, 101 kPa, x1 = 0.03452	2.102 ± 0.025 mPa·s
294.15 K, 101 kPa, x1 = 0.00631	1.136 ± 0.012 mPa·s
294.15 K, 101 kPa, x1 = 0.0131	1.352 ± 0.014 mPa·s
295.15 K, 101 kPa, x1 = 0.00631	1.106 ± 0.012 mPa·s
295.15 K, 101 kPa, x1 = 0.0131	1.315 ± 0.014 mPa·s
295.15 K, 101 kPa, x1 = 0.01666	1.421 ± 0.015 mPa·s
295.15 K, 101 kPa, x1 = 0.03452	1.979 ± 0.021 mPa·s
296.15 K, 101 kPa, x1 = 0.00631	1.079 ± 0.011 mPa·s
296.15 K, 101 kPa, x1 = 0.0131	1.279 ± 0.013 mPa·s
297.15 K, 101 kPa, x1 = 0.00631	1.052 ± 0.011 mPa·s
297.15 K, 101 kPa, x1 = 0.0131	1.245 ± 0.013 mPa·s
297.15 K, 101 kPa, x1 = 0.01666	1.342 ± 0.014 mPa·s
297.15 K, 101 kPa, x1 = 0.03452	1.868 ± 0.019 mPa·s
298.15 K, 101 kPa, x1 = 0.00631	1.026 ± 0.011 mPa·s
298.15 K, 101 kPa, x1 = 0.0131	1.212 ± 0.013 mPa·s
299.15 K, 101 kPa, x1 = 0.00631	1.001 ± 0.01 mPa·s
299.15 K, 101 kPa, x1 = 0.0131	1.18 ± 0.012 mPa·s
299.15 K, 101 kPa, x1 = 0.01666	1.271 ± 0.013 mPa·s
299.15 K, 101 kPa, x1 = 0.03452	1.766 ± 0.018 mPa·s
300.15 K, 101 kPa, x1 = 0.00631	0.9782 ± 0.01 mPa·s
300.15 K, 101 kPa, x1 = 0.0131	1.15 ± 0.012 mPa·s
301.15 K, 101 kPa, x1 = 0.00631	0.9547 ± 0.01 mPa·s
301.15 K, 101 kPa, x1 = 0.0131	1.121 ± 0.012 mPa·s
301.15 K, 101 kPa, x1 = 0.01666	1.205 ± 0.013 mPa·s
301.15 K, 101 kPa, x1 = 0.03452	1.675 ± 0.017 mPa·s
302.15 K, 101 kPa, x1 = 0.00631	0.9328 ± 0.0098 mPa·s
302.15 K, 101 kPa, x1 = 0.0131	1.092 ± 0.011 mPa·s
303.15 K, 101 kPa, x1 = 0.00631	0.9113 ± 0.0095 mPa·s
303.15 K, 101 kPa, x1 = 0.0131	1.066 ± 0.011 mPa·s
303.15 K, 101 kPa, x1 = 0.01666	1.144 ± 0.012 mPa·s
303.15 K, 101 kPa, x1 = 0.03452	1.592 ± 0.016 mPa·s
304.15 K, 101 kPa, x1 = 0.00631	0.891 ± 0.0093 mPa·s
304.15 K, 101 kPa, x1 = 0.0131	1.04 ± 0.011 mPa·s
305.15 K, 101 kPa, x1 = 0.00631	0.8711 ± 0.0091 mPa·s
305.15 K, 101 kPa, x1 = 0.0131	1.015 ± 0.01 mPa·s
305.15 K, 101 kPa, x1 = 0.01666	1.089 ± 0.011 mPa·s
305.15 K, 101 kPa, x1 = 0.03452	1.515 ± 0.015 mPa·s
306.15 K, 101 kPa, x1 = 0.00631	0.8521 ± 0.0089 mPa·s
306.15 K, 101 kPa, x1 = 0.0131	0.9916 ± 0.01 mPa·s
307.15 K, 101 kPa, x1 = 0.00631	0.8342 ± 0.0087 mPa·s
307.15 K, 101 kPa, x1 = 0.0131	0.9686 ± 0.01 mPa·s
307.15 K, 101 kPa, x1 = 0.01666	1.038 ± 0.011 mPa·s
307.15 K, 101 kPa, x1 = 0.03452	1.445 ± 0.014 mPa·s
308.15 K, 101 kPa, x1 = 0.00631	0.8158 ± 0.0085 mPa·s
308.15 K, 101 kPa, x1 = 0.0131	0.9465 ± 0.0098 mPa·s
308.15 K, 101 kPa, x1 = 0.037	1.465 ± 0.017 mPa·s and 1.465 ± 0.038 mPa·s
308.15 K, 101.33 kPa, x2 = 0.3047	2.388 ± 0.11 mPa·s
308.15 K, 101.33 kPa, x2 = 0.4017	2.477 ± 0.11 mPa·s
308.15 K, 101.33 kPa, x2 = 0.4974	2.624 ± 0.12 mPa·s
308.15 K, 101.33 kPa, x2 = 0.5973	2.835 ± 0.13 mPa·s
308.15 K, 101.33 kPa, x2 = 0.697	2.955 ± 0.13 mPa·s
308.15 K, 101.33 kPa, x2 = 0.8047	2.873 ± 0.13 mPa·s
308.15 K, 101.33 kPa, x2 = 0.8972	2.245 ± 0.1 mPa·s
308.15 K, 101.33 kPa, x2 = 0.9497	1.576 ± 0.076 mPa·s
309.15 K, 101 kPa, x1 = 0.00631	0.799 ± 0.0083 mPa·s
309.15 K, 101 kPa, x1 = 0.0131	0.9251 ± 0.0096 mPa·s
309.15 K, 101 kPa, x1 = 0.01666	0.9913 ± 0.01 mPa·s
309.15 K, 101 kPa, x1 = 0.03452	1.381 ± 0.013 mPa·s
310.15 K, 101 kPa, x1 = 0.00631	0.7823 ± 0.0082 mPa·s
310.15 K, 101 kPa, x1 = 0.0131	0.9045 ± 0.0093 mPa·s
311.15 K, 101 kPa, x1 = 0.00631	0.7663 ± 0.008 mPa·s
311.15 K, 101 kPa, x1 = 0.0131	0.8847 ± 0.0091 mPa·s
311.15 K, 101 kPa, x1 = 0.01666	0.9476 ± 0.0097 mPa·s
311.15 K, 101 kPa, x1 = 0.03452	1.322 ± 0.013 mPa·s
312.15 K, 101 kPa, x1 = 0.00631	0.7507 ± 0.0078 mPa·s
312.15 K, 101 kPa, x1 = 0.0131	0.8657 ± 0.0089 mPa·s
313.15 K, 101 kPa, x1 = 0.00631	0.7357 ± 0.0077 mPa·s
313.15 K, 101 kPa, x1 = 0.0131	0.8474 ± 0.0087 mPa·s
313.15 K, 101 kPa, x1 = 0.01666	0.907 ± 0.0092 mPa·s
313.15 K, 101 kPa, x1 = 0.03452	1.268 ± 0.012 mPa·s
313.15 K, 101 kPa, x1 = 0.6	2.465 ± 0.026 mPa·s
314.15 K, 101 kPa, x1 = 0.00631	0.7211 ± 0.0075 mPa·s
314.15 K, 101 kPa, x1 = 0.0131	0.8294 ± 0.0085 mPa·s
315.15 K, 101 kPa, x1 = 0.00631	0.7073 ± 0.0074 mPa·s
315.15 K, 101 kPa, x1 = 0.0131	0.8121 ± 0.0083 mPa·s
315.15 K, 101 kPa, x1 = 0.01666	0.8696 ± 0.0089 mPa·s
315.15 K, 101 kPa, x1 = 0.03452	1.218 ± 0.012 mPa·s
316.15 K, 101 kPa, x1 = 0.00631	0.6935 ± 0.0073 mPa·s
316.15 K, 101 kPa, x1 = 0.0131	0.7957 ± 0.0082 mPa·s
317.15 K, 101 kPa, x1 = 0.00631	0.6799 ± 0.0071 mPa·s
317.15 K, 101 kPa, x1 = 0.0131	0.7795 ± 0.008 mPa·s
317.15 K, 101 kPa, x1 = 0.01666	0.8346 ± 0.0085 mPa·s
317.15 K, 101 kPa, x1 = 0.03452	1.173 ± 0.011 mPa·s
318.15 K, 101 kPa, x1 = 0.00631	0.6676 ± 0.007 mPa·s
318.15 K, 101 kPa, x1 = 0.0131	0.764 ± 0.0079 mPa·s
318.15 K, 101 kPa, x1 = 0.03452	1.151 ± 0.011 mPa·s
319.15 K, 101 kPa, x1 = 0.00631	0.6552 ± 0.0069 mPa·s
319.15 K, 101 kPa, x1 = 0.0131	0.7487 ± 0.0077 mPa·s
319.15 K, 101 kPa, x1 = 0.01666	0.8021 ± 0.0082 mPa·s
319.15 K, 101 kPa, x1 = 0.03452	1.131 ± 0.011 mPa·s
320.15 K, 101 kPa, x1 = 0.00631	0.6431 ± 0.0067 mPa·s
320.15 K, 101 kPa, x1 = 0.0131	0.7347 ± 0.0076 mPa·s
320.15 K, 101 kPa, x1 = 0.03452	1.113 ± 0.01 mPa·s
320.65 K, 101 kPa, x1 = 0.03452	1.104 ± 0.0099 mPa·s
321.15 K, 101 kPa, x1 = 0.00631	0.6313 ± 0.0066 mPa·s
321.15 K, 101 kPa, x1 = 0.0131	0.7202 ± 0.0074 mPa·s
321.15 K, 101 kPa, x1 = 0.01666	0.7716 ± 0.0078 mPa·s
321.15 K, 101 kPa, x1 = 0.03452	1.096 ± 0.01 mPa·s
321.65 K, 101 kPa, x1 = 0.03452	1.088 ± 0.014 mPa·s
322.15 K, 101 kPa, x1 = 0.00631	0.6205 ± 0.0065 mPa·s
322.15 K, 101 kPa, x1 = 0.0131	0.7065 ± 0.0073 mPa·s
323.15 K, 101 kPa, x1 = 0.00631	0.6094 ± 0.0061 mPa·s
323.15 K, 101 kPa, x1 = 0.0131	0.6934 ± 0.0069 mPa·s
323.15 K, 101 kPa, x1 = 0.01666	0.743 ± 0.0076 mPa·s
